Drawing on patent US20250136568A1, “FUSED HETEROCYCLIC COMPOUNDS AS PI3KALPHA INHIBITORS” (Nanjing Zenshine Pharmaceuticals Co., Ltd., priority 2021, published 2025), this text covers IC50 for 11 compounds.

What all share (type): cell-based
Test [1] deals with PI3Kα H1047R mutation cell line T-47D. Put plainly: Cell Proliferation IC50 Assay (CellTiter-Glo), T-47D. The following applies: Homo sapiens, T47D, 72 h, T47D (H1047R), 72 hours, CellTiter-Glo; read-out: IC50 (μM) T47D. The gist of the method: (§1)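 Cells were seeded and left overnight, then exposed to serially diluted compound (200-fold final dilution) for 72 h at 37 °C, 5% CO2. Viability was read by CellTiter-Glo luminescence. Percent inhibition and IC50 were calculated from the signal.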

In test [2] the test system is PI3Kα wide type cell line SK-BR-3. Put plainly: Cell Proliferation IC50 Assay (CellTiter-Glo), SK-BR-3. The following applies: Homo sapiens; SK-BR-3 (PI3Kα wild type), 72 hours, CellTiter-Glo; read-out: IC50 (μM) SK-BR-3. Put shortly: as §1
Test [3] has as its system PI3Kα H1047R mutation cell line MDA-MB-453. Put plainly: Cell Proliferation IC50 Assay (CellTiter-Glo), MDA-MB-453. The following applies: Homo sapiens; MDA-MB-453 (H1047R), 72 hours, CellTiter-Glo; read-out: IC50 (μM) MDA-MB-453. Put shortly:
as §1

Bounds are passed on as bounds.

Regarding `Cc1cc([C@@H](C)Nc2ccccc2C(=O)O)c2oc(-c3ccc(Cc4cnn(C)c4)cc3)c(C)c(=O)c2c1` [Example 151, 2-[[(1R)-1-[3,6-dimethyl-2-[4-[(1-methylpyrazol-4-yl)methyl]phenyl]-4-oxo-chromen-8-yl]ethyl]amino]benzoic acid], the IC50 in test [1] is 0.058 µM; in test [2], more than 10 µM; in test [3], 0.089 µM.
In the same order, the values of `Cc1cc(C(C)Nc2ccccc2C(=O)O)c2oc(-c3ccccc3)cc(=O)c2c1` (stereo not drawn) [Example 1, 2-((1-(6-methyl-4-oxo-2-phenyl-4H-chromen-8-yl)ethyl)amino)benzoic acid] are 0.33 µM, more than 10 µM and 0.7 µM.
In the same order, the values of `Cc1cc(C(C)Nc2ccccc2C(=O)O)c2oc(-c3cccnc3)cc(=O)c2c1` (stereo not drawn) [Example 32, 2-((1-(6-methyl-4-oxo-2-(pyridin-3-yl)-4H-chromen-8-yl)ethyl)amino)benzoic acid] are 0.75 µM, more than 10 µM and 1.38 µM.
In the same order, the values of `Cc1cc(C(C)Nc2ccccc2C(=O)O)c2oc(C3CCN(c4ccccc4)CC3)cc(=O)c2c1` (stereo not drawn) [Example 18, 2-((1-(6-methyl-4-oxo-2-(1-phenylpiperidin-4-yl)-4H-chromen-8-yl)ethyl)amino)benzoic acid] are 0.31 µM, more than 10 µM and 0.77 µM.
As for `CC(=O)N1CCN(c2ccc(-c3oc4c([C@H](C)Nc5ccccc5C(=O)O)cc(C)cc4c(=O)c3C)cc2)CC1` (single isomer, unassigned) [Example 123B], the half-maximal inhibitory concentration (IC50) in test [1], in test [2] and in test [3] was more than 10 µM throughout.
Take `Cc1cc([C@@H](C)Nc2ccccc2C(=O)O)c2oc(-c3ccc4c(c3)CN(C)C4=O)c(C)c(=O)c2c1` (single isomer, unassigned) [Example 20B]: the concentration for half-maximal inhibition (IC50) in test [1] was 0.048 µM; in test [2], more than 10 µM; in test [3], 0.07 µM.
In the same order, the values of `Cc1cc(C(C)Nc2ccccc2C(=O)O)c2oc(-c3ccn(C)c(=O)c3)cc(=O)c2c1` (stereo not drawn) [Example 34, 2-((1-(6-methyl-2-(1-methyl-2-oxo-1,2-dihydropyridin-4-yl)-4-oxo-4H-chromen-8-yl)ethyl)amino)benzoic acid] are 4.63 µM, more than 10 µM and 7.82 µM.
In the same order, the values of `Cc1cc(C(C)Nc2ccccc2C(=O)O)c2oc(-c3cc(C)c4nn(C)cc4c3)cc(=O)c2c1` (stereo not drawn) [Example 109, 2-((1-(2-(2,7-dimethyl-21-indazol-5-yl)-6-methyl-4-oxo-4H-chromen-8-yl)ethyl)amino)benzoic acid] are 0.22 µM, more than 10 µM and 0.16 µM.
Consider `CC(=O)N1CCC(c2cc(=O)c3cc(C)cc(C(C)Nc4ccccc4C(=O)O)c3o2)CC1` (stereo not drawn) [Example 28, 2-((1-(2-(1-acetylpiperidin-4-yl)-6-methyl-4-oxo-4H-chromen-8-yl)ethyl)amino)benzoic acid], for which the half-inhibitory concentration (IC50) in test [1] is 1.77 µM; in test [2], more than 10 µM; in test [3], 3.61 µM.
In the same order, the values of `Cc1cc(C(C)Nc2ccc(Cl)nc2C(=O)O)c2oc(-c3ccc4c(c3)CN(C)C4=O)c(C)c(=O)c2c1` (stereo not drawn) [Example 22, 6-chloro-3-((1-(3,6-dimethyl-2-(2-methyl-1-oxoisoindolin-5-yl)-4-oxo-4H-chromen-8-yl)ethyl)amino)picolinic acid] are 0.72 µM, 5.07 µM and 0.63 µM.
On to `Cc1cc([C@@H](C)Nc2ccccc2C(=O)O)c2oc(-c3ccc(N4CCOCC4)cc3)c(C)c(=O)c2c1` (single isomer, unassigned) [Example 53A], for which the half-maximal inhibitory concentration (IC50) in test [1] is 0.09 µM; in test [2], more than 10 µM; in test [3], 0.12 µM.
